Measurements taken from ChEMBL document CHEMBL1142134, “Characterization of squalene epoxidase of Saccharomyces cerevisiae by applying terbinafine-sensitive variants” (2007).
The source made the active and inactive calls. The calls are words filed in the database; no cut-off is given here.

Experiments:
[1] = system: Saccharomyces cerevisiae; assay: Increased sensitivity to growth inhibition in Saccharomyces cerevisiae KLN1 carrying erg1 pR269G allele after 24 hrs relative to wild type at 30 degC; type: functional
[2] = system: Saccharomyces cerevisiae; assay: Increased sensitivity to growth inhibition in Saccharomyces cerevisiae KLN1 carrying erg1 pL37P allele after 24 hrs relative to wild type at 30 degC; type: functional
[3] = system: Saccharomyces cerevisiae; assay: Growth inhibition in Saccharomyces cerevisiae KLN1 carrying erg1 pR269G allele at 1 ug/ml after 24 hrs st 30 degC; type: functional, organism-based
[4] = system: Saccharomyces cerevisiae; assay: Growth inhibition in Saccharomyces cerevisiae KLN1 carrying erg1 pG30S allele at 0.5 ug/ml after 24 hrs at 30 degC; type: functional, organism-based
[5] = system: Saccharomyces cerevisiae; assay: Growth inhibition in Saccharomyces cerevisiae KLN1 carrying erg1 pL37P allele at 0.2 ug/ml after 24 hrs at 30 degC; type: functional, organism-based

Row | Compound | Fold change [1] | Fold change [2] | Activity [3] | Activity [4] | Activity [5]
1 | CN(C/C=C/c1ccccc1)Cc1cccc2ccccc12 [NAFTIFINE] | >10 | >25 |  |  | 
2 | CN(C/C=C/C#CC(C)(C)C)Cc1cccc2ccccc12 [TERBINAFINE] | >5 | >10 | Active | Active | Active
3 | CC(=O)N1CCN(c2ccc(OCC3COC(Cn4ccnc4)(c4ccc(Cl)cc4Cl)O3)cc2)CC1 (centres undefined) [KETOCONAZOLE] | 2 | 5 |  |  | 
